Source: paper PMC6767236, “Selective Cannabinoid 2 Receptor Agonists as Potential Therapeutic Drugs for the Treatment of Endotoxin-Induced Uveitis” (Molecules, 2019)

Test system: neutrophils from CB2R-/- mice
Experiment: Transwell neutrophil migration assay towards CXCL2, CB2R-/- neutrophils
Assay type: cell-based, mouse
Conditions: 10 nM CXCL2
Experimental: As described previously, mouse neutrophils were isolated from the bone marrow of mice. Mice were euthanized, femur and tibia were dissected and flushed with ice-cold 1× Hanks balanced salt solution (HBSS; supplemented with […], pH7.5, and 0.5 mM EDTA; Invitrogen) through a sterile filter (70 μm). The suspension was centrifuged at 300× g for 12 min at 4 °C. EasySep™ neutrophil enrichment kit ([…] Technologies Inc., Vancouver, BC, Canada) was used to isolate neutrophils according to the manufacturer’s instructions. The isolated neutrophils were then washed once and the pelleted cells were suspended in RPMI (Invitrogen) containing 1% heat-inactivated fetal bovine serum (FBS, Invitrogen) and used immediately for neutrophil migration experiments or processed for adoptive transfer. The murine neutrophil isolation protocol routinely yields cell suspensions that are >95% pure and viable, as determined by cresyl violet and trypan blue exclusion, respectively.
Neutrophil migration assays were performed using a Transwell migration assay. Isolated neutrophils (1 × 10^5 cells/100 μL) from WT or CB2R^-/- mice were incubated with vehicle (0.01% DMSO), or various concentrations of RO8671304 or RO6851228 at 37 °C, 5% CO2 for 30 min. […] The number of migrated neutrophils was then determined using ImageJ. […]

Compound: CC(C)(C)c1nc(N2CC[C@H](O)C2)c2nnn(Cc3nnnn3C3CC3)c2n1 [RO6871304, (3S)-1-{5-tert-butyl-3-[(1-cyclopropyl-1H-tetrazol-5-yl)methyl]-3H-[1,2, 3]triazolo[4,5-d]pyrimidin-7-yl}pyrrolidin-3-ol]
- CXCL2-induced migration of CB2R-/- neutrophils: did not inhibit migration
